From the kinase profiling compilation of Christmann-Franck et al. (2016)

Columns and labels:
Assay in all cases: KINOMEscan competition binding
Settings in all cases: compound 10.0 µM
KDR (human) = KDR (human) (UniProt P35968)
MAPK10 (human) = MAPK10 (human) (UniProt P53779)
RET (human) = RET (human) (UniProt P07949)
CDK5 (human) = CDK5 (human) (UniProt Q00535)
IGF1R (human) = IGF1R (human) (UniProt P08069)
FRK (human) = FRK (human) (UniProt P42685)
FLT1 (human) = FLT1 (human) (UniProt P17948)
SYK (human) = SYK (human) (UniProt P43405)
MAP3K4 (human) = MAP3K4 (human) (UniProt Q9Y6R4)
SIK1 (human) = SIK1 (human) (UniProt P57059)
LATS1 (human) = LATS1 (human) (UniProt O95835)
MAPK1 (human) = MAPK1 (human) (UniProt P28482)
MAPK1 (human), sequence (P28482 whole entry, looked up): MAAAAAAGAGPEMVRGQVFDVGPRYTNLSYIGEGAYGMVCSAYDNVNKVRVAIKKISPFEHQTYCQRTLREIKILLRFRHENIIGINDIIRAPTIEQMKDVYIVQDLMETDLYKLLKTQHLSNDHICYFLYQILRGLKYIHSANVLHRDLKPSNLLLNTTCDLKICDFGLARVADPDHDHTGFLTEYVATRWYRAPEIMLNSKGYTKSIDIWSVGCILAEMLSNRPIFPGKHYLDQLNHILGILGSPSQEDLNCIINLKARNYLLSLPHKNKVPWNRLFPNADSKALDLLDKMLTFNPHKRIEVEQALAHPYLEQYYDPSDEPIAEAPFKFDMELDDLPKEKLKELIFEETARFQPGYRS

CDK15 (human) = CDK15 (human) (UniProt Q96Q40)
[1] = system: ABL1 (human), P00519 [Q252H]
STK36 (human) = STK36 (human) (UniProt Q9NRP7)
MAPK7 (human) = MAPK7 (human) (UniProt Q13164)
MAP3K3 (human) = MAP3K3 (human) (UniProt Q99759)
MYO3A (human) = MYO3A (human) (UniProt Q8NEV4)
MYO3A (human), sequence (Q8NEV4 whole entry, looked up): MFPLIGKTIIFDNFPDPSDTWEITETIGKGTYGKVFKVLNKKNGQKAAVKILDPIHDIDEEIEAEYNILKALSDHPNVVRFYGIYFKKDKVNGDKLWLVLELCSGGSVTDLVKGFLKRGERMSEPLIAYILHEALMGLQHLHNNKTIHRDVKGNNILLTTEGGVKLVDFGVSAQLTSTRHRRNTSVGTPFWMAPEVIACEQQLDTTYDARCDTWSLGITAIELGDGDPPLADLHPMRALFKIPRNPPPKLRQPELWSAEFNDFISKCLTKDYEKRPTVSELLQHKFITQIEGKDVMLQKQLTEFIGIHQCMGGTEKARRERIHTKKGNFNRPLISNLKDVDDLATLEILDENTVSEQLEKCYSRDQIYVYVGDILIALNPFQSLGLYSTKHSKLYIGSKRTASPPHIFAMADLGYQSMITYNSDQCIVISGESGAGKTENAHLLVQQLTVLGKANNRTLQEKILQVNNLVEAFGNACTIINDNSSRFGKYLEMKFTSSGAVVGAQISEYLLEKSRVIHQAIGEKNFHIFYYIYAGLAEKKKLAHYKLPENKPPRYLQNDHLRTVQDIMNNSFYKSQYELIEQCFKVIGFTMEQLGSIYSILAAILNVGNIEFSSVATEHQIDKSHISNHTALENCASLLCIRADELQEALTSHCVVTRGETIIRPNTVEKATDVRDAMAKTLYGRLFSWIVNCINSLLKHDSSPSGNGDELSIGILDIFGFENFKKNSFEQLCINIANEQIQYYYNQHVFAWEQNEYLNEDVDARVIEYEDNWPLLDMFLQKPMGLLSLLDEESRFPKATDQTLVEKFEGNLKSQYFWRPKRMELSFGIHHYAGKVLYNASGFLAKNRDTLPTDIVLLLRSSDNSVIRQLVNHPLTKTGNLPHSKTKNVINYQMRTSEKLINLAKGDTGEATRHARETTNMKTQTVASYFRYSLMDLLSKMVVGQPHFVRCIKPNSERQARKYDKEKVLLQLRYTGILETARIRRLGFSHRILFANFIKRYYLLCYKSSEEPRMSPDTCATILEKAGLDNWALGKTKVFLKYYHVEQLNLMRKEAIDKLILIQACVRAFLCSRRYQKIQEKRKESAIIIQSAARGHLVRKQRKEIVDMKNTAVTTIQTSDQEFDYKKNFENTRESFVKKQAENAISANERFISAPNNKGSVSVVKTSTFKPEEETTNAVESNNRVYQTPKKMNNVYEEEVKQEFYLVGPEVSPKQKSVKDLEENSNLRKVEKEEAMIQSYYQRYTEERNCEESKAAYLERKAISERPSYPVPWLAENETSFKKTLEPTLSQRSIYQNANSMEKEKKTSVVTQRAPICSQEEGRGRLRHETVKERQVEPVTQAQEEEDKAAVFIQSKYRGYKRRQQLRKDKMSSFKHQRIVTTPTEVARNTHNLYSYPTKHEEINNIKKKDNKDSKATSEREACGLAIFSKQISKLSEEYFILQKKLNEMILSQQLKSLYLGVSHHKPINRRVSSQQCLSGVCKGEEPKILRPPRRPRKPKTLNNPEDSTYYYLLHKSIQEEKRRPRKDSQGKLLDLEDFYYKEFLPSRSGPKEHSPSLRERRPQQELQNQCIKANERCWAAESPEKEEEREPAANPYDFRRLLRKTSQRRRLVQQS

CAMK1 (human) = CAMK1 (human) (UniProt Q14012)
PRKAA2 (human) = PRKAA2 (human) (UniProt P54646)
BMPR1A (human) = BMPR1A (human) (UniProt P36894)
[2] = system: ABL1 (human), P00519 [T315I]
[3] = system: RET (human), P07949 [V804L]
[4] = biological target: TYK2 JH1 catalytic (human) (UniProt P29597)
BTK (human) = BTK (human) (UniProt Q06187)
BTK (human), sequence (Q06187 whole entry, looked up): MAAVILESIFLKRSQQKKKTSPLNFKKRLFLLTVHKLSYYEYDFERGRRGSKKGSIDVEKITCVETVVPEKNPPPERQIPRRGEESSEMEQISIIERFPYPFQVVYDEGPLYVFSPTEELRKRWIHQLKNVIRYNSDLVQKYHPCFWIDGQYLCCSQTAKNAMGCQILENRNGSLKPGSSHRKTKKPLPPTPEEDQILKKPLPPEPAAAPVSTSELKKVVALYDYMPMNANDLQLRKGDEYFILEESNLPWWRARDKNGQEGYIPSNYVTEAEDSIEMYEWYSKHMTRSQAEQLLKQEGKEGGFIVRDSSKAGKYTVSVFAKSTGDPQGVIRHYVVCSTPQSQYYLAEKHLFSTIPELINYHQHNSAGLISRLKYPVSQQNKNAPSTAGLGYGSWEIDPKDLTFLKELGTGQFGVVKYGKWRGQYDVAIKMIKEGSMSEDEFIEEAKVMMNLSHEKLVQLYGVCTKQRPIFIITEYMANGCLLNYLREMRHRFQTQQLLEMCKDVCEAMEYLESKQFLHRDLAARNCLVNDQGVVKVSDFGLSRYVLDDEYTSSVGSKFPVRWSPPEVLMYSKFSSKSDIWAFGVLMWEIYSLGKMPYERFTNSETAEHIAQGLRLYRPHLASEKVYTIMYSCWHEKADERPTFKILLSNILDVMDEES

TGFBR1 (human) = TGFBR1 (human) (UniProt P36897)
CSNK1A1L (human) = CSNK1A1L (human) (UniProt Q8N752)
[5] = system: EGFR (human), P00533 [P753S; 747-752 del]
ERBB2 (human) = ERBB2 (human) (UniProt P04626)
MAPK6 (human) = MAPK6 (human) (UniProt Q16659)
MAPK6 (human), sequence (Q16659 whole entry, looked up): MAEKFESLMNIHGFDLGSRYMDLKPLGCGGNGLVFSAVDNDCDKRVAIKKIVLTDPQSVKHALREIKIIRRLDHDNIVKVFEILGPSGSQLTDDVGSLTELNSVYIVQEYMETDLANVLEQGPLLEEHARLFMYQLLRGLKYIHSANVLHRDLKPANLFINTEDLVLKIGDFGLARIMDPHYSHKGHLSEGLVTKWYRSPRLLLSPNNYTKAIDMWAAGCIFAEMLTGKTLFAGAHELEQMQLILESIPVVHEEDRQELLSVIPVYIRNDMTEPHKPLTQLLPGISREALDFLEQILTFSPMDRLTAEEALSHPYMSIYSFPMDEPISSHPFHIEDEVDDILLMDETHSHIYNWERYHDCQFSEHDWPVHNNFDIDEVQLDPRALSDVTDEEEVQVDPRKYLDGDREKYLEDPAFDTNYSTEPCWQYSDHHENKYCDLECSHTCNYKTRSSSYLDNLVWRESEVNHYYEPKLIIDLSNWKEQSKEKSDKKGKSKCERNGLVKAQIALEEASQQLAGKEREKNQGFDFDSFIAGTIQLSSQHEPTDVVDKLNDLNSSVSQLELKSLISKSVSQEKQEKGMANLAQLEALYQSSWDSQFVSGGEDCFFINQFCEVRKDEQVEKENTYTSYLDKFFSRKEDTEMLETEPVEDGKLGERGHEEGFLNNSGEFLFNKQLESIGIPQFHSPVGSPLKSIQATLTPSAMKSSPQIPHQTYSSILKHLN

MAPK3 (human) = MAPK3 (human) (UniProt P27361)
CSF1R (human) = CSF1R (human) (UniProt P07333)
SRC (human) = SRC (human) (UniProt P12931)
CAMK2B (human) = CAMK2B (human) (UniProt Q13554)
[6] = system: ABL1 (human), P00519 [E255K]
MAP2K6 (human) = MAP2K6 (human) (UniProt P52564)
EPHA3 (human) = EPHA3 (human) (UniProt P29320)
TNK2 (human) = TNK2 (human) (UniProt Q07912)
NUAK1 (human) = NUAK1 (human) (UniProt O60285)
NUAK1 (human), sequence (O60285 whole entry, looked up): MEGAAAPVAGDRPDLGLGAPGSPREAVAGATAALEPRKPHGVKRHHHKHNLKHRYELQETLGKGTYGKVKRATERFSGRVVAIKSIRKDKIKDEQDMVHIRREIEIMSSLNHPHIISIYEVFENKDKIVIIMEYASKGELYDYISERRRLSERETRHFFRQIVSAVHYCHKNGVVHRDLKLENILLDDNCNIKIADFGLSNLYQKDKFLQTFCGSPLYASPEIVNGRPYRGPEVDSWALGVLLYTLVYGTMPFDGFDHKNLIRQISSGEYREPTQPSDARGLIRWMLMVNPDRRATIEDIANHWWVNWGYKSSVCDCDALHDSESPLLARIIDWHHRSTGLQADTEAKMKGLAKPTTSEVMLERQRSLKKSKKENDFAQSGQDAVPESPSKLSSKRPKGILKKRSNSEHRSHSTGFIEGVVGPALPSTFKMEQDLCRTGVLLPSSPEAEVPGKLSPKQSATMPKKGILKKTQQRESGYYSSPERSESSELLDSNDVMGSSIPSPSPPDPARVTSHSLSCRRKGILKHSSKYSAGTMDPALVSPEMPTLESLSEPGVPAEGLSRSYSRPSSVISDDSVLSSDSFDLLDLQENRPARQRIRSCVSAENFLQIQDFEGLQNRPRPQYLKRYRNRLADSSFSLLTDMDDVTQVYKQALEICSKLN

CDK8 (human) = CDK8 (human) (UniProt P49336)
MAPK4 (human) = MAPK4 (human) (UniProt P31152)
ERBB4 (human) = ERBB4 (human) (UniProt Q15303)

FRK (human), sequence (P42685 whole entry, looked up): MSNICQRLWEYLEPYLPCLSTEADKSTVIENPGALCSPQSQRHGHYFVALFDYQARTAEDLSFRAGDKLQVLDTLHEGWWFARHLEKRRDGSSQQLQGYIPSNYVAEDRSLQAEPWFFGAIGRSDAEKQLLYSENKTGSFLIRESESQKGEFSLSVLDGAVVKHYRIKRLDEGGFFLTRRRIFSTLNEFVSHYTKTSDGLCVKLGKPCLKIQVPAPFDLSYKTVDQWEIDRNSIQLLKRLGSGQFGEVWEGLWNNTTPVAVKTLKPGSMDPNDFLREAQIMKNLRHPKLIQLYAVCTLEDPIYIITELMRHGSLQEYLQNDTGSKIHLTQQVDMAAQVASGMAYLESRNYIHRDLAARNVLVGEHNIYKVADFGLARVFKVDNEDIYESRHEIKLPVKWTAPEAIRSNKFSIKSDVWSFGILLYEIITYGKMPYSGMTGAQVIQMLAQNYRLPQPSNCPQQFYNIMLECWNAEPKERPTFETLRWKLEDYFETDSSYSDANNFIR
MAPK10 (human), sequence (P53779 whole entry, looked up): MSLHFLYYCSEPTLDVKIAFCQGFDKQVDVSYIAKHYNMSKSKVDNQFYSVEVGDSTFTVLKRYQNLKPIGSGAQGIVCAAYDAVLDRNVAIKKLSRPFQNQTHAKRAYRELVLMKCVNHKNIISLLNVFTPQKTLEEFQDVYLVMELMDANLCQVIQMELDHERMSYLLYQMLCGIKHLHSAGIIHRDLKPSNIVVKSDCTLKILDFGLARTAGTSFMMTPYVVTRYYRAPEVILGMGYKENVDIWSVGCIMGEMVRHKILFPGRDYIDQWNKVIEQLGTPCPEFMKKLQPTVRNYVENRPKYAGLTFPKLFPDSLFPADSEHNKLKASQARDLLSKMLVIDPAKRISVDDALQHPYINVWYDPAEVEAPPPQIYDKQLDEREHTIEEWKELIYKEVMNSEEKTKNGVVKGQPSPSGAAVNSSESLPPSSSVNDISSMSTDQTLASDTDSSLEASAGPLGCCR

`COc1cc(N2CCN(C)CC2)ccc1Nc1ncc2c(n1)Nc1ccccc1NC2=O` was tested, and the kinase still bound, per cent of control (KDR (human)) was 74%, the kinase still bound, per cent of control (MAPK10 (human)) was 58% and the kinase still bound, per cent of control (RET (human)) was 95%. For the same molecule, the kinase still bound, per cent of control (CDK5 (human)) was 87%, the kinase still bound, per cent of control (IGF1R (human)) was 100% and the kinase still bound, per cent of control (FRK (human)) was 93%. The kinase still bound, per cent of control (FLT1 (human)) was 45%, the kinase still bound, per cent of control (SYK (human)) was 91% and the kinase still bound, per cent of control (MAP3K4 (human)) was 95%. The kinase still bound, per cent of control (SIK1 (human)) was 27%, the kinase still bound, per cent of control (LATS1 (human)) was 90% and the kinase still bound, per cent of control (MAPK1 (human)) was 94%. The kinase still bound, per cent of control (CDK15 (human)) was 58%, the kinase still bound, per cent of control [1] was 14% and the kinase still bound, per cent of control (STK36 (human)) was 64%. The kinase still bound, per cent of control (MAPK7 (human)) was 100%, the kinase still bound, per cent of control (MAP3K3 (human)) was 86% and the kinase still bound, per cent of control (MYO3A (human)) was 80%. The kinase still bound, per cent of control (CAMK1 (human)) was 100%, the kinase still bound, per cent of control (PRKAA2 (human)) was 84% and the kinase still bound, per cent of control (BMPR1A (human)) was 80%. For the same molecule, the kinase still bound, per cent of control [2] was 46%, the kinase still bound, per cent of control [3] was 80% and the kinase still bound, per cent of control [4] was 66%. For the same molecule, the kinase still bound, per cent of control (BTK (human)) was 23%, the kinase still bound, per cent of control (TGFBR1 (human)) was 79% and the kinase still bound, per cent of control (CSNK1A1L (human)) was 100%. It also gave a kinase still bound, per cent of control [5] of 39%, a kinase still bound, per cent of control (ERBB2 (human)) of 5% and a kinase still bound, per cent of control (MAPK6 (human)) of 100%. The kinase still bound, per cent of control (MAPK3 (human)) was 93%, the kinase still bound, per cent of control (CSF1R (human)) was 75% and the kinase still bound, per cent of control (SRC (human)) was 48%. It also gave a kinase still bound, per cent of control (CAMK2B (human)) of 98%, a kinase still bound, per cent of control [6] of 19% and a kinase still bound, per cent of control (MAP2K6 (human)) of 97%. For the same molecule, the kinase still bound, per cent of control (EPHA3 (human)) was 61%, the kinase still bound, per cent of control (TNK2 (human)) was 56% and the kinase still bound, per cent of control (NUAK1 (human)) was 63%. For the same molecule, the kinase still bound, per cent of control (CDK8 (human)) was 55%, the kinase still bound, per cent of control (MAPK4 (human)) was 99% and the kinase still bound, per cent of control (ERBB4 (human)) was 62%.
Work on `O=C1NC(=O)/C(=C/c2c[nH]c(=O)c(-c3ccc(N4CCNCC4)nc3)c2)S1` yielded a kinase still bound, per cent of control (KDR (human)) of 100%, a kinase still bound, per cent of control (MAPK10 (human)) of 77% and a kinase still bound, per cent of control (RET (human)) of 70%. It also gave a kinase still bound, per cent of control (CDK5 (human)) of 100%, a kinase still bound, per cent of control (IGF1R (human)) of 100% and a kinase still bound, per cent of control (FRK (human)) of 90%. For the same molecule, the kinase still bound, per cent of control (FLT1 (human)) was 93%, the kinase still bound, per cent of control (SYK (human)) was 100% and the kinase still bound, per cent of control (MAP3K4 (human)) was 14%. It also gave a kinase still bound, per cent of control (SIK1 (human)) of 100%, a kinase still bound, per cent of control (LATS1 (human)) of 84% and a kinase still bound, per cent of control (MAPK1 (human)) of 97%. The kinase still bound, per cent of control (CDK15 (human)) was 50%, the kinase still bound, per cent of control [1] was 53% and the kinase still bound, per cent of control (STK36 (human)) was 85%. For the same molecule, the kinase still bound, per cent of control (MAPK7 (human)) was 48%, the kinase still bound, per cent of control (MAP3K3 (human)) was 9.9% and the kinase still bound, per cent of control (MYO3A (human)) was 46%. It also gave a kinase still bound, per cent of control (CAMK1 (human)) of 68%, a kinase still bound, per cent of control (PRKAA2 (human)) of 100% and a kinase still bound, per cent of control (BMPR1A (human)) of 100%. The kinase still bound, per cent of control [2] was 57%, the kinase still bound, per cent of control [3] was 70% and the kinase still bound, per cent of control [4] was 2.5%. For the same molecule, the kinase still bound, per cent of control (BTK (human)) was 51%, the kinase still bound, per cent of control (TGFBR1 (human)) was 48% and the kinase still bound, per cent of control (CSNK1A1L (human)) was 100%. For the same molecule, the kinase still bound, per cent of control [5] was 76%, the kinase still bound, per cent of control (ERBB2 (human)) was 57% and the kinase still bound, per cent of control (MAPK6 (human)) was 93%. For the same molecule, the kinase still bound, per cent of control (MAPK3 (human)) was 94%, the kinase still bound, per cent of control (CSF1R (human)) was 69% and the kinase still bound, per cent of control (SRC (human)) was 100%. It also gave a kinase still bound, per cent of control (CAMK2B (human)) of 47%, a kinase still bound, per cent of control [6] of 94% and a kinase still bound, per cent of control (MAP2K6 (human)) of 100%. It also gave a kinase still bound, per cent of control (EPHA3 (human)) of 67%, a kinase still bound, per cent of control (TNK2 (human)) of 100% and a kinase still bound, per cent of control (NUAK1 (human)) of 77%. It also gave a kinase still bound, per cent of control (CDK8 (human)) of 44%, a kinase still bound, per cent of control (MAPK4 (human)) of 100% and a kinase still bound, per cent of control (ERBB4 (human)) of 68%.
